Measured values published in ChEMBL document CHEMBL6092154, “Design, synthesis, and evaluation of a novel TRAIL-activated HDAC6 inhibitor for the treatment of pulmonary fibrosis” (Bioorg Med Chem, 2024).
pIC50: −log10 of the molar value. Activity calls are given as the source filed them. The calls are words filed in the database; no cut-off is given here.

Experiments:
[1] = system: Mus musculus; experiment: Anti-pulmonary fibrosis activity in bleomycin-induced idiopathic pulmonary fibrosis C57BL/6J mouse model assessed as decrease in weight loss at 50 mg/kg, ig administered daily via gavage and measured for 14 days; type: functional, organism-based; conditions: time 14.0 day
[2] = biological target: T1, Histone deacetylase 3 (Homo sapiens, UniProt O15379); experiment: Inhibition of HDAC3 (unknown origin) incubated for 30 mins by fluorometric analysis
[3] = biological target: T2, Protein deacetylase HDAC6 (Homo sapiens) (UniProt Q9UBN7); experiment: Inhibition of HDAC6 in human RPMI-8226 cells assessed as increase in acetylated alpha-tubulin level at 1 uM incubated for 24 hrs by western blot analysis; type: cell-based
T2 sequence (whole entry): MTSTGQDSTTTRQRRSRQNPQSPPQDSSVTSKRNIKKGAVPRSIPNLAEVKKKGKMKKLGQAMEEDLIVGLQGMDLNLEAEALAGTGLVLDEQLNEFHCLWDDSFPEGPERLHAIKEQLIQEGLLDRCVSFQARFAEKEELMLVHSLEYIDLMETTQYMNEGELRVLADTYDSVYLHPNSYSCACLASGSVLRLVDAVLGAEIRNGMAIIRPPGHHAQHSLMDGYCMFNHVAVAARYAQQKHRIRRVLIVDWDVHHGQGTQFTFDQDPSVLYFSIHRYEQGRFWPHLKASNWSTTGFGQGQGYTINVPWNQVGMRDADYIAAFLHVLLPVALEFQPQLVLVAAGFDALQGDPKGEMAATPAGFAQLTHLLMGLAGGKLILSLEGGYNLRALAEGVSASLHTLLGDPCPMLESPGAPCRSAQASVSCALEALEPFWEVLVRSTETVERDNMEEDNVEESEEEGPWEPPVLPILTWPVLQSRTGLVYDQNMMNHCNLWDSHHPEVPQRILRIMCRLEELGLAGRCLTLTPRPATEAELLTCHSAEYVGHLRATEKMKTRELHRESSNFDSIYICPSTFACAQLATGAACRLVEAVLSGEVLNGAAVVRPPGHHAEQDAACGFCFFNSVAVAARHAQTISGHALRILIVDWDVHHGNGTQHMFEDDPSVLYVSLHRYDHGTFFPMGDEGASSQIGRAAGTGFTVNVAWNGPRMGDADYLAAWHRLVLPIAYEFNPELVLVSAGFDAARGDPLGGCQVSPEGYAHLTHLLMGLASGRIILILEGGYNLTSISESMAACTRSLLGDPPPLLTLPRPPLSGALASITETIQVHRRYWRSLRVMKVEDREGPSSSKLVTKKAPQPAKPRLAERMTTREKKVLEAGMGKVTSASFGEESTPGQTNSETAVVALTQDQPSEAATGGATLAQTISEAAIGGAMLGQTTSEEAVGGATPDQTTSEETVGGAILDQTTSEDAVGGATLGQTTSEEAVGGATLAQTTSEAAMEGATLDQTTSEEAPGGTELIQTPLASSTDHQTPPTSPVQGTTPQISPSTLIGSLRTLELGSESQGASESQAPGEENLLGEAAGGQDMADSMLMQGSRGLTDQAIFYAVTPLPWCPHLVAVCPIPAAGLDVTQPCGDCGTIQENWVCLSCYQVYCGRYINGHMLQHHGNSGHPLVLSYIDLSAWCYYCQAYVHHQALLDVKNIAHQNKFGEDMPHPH

[4] = biological target: T3, Protein deacetylase HDAC6 (Mus musculus) (UniProt Q9Z2V5); experiment: In vivo inhibition of HDAC6 in bleomycin-induced idiopathic pulmonary fibrosis C57BL/6J mouse model assessed as increase in acetylated histone H4 level in lung at 50 mg/kg, ig administered via gavage and measured on day 14 by western blot analysis; type: functional, organism-based; conditions: time 14.0 day
T3 sequence (whole entry): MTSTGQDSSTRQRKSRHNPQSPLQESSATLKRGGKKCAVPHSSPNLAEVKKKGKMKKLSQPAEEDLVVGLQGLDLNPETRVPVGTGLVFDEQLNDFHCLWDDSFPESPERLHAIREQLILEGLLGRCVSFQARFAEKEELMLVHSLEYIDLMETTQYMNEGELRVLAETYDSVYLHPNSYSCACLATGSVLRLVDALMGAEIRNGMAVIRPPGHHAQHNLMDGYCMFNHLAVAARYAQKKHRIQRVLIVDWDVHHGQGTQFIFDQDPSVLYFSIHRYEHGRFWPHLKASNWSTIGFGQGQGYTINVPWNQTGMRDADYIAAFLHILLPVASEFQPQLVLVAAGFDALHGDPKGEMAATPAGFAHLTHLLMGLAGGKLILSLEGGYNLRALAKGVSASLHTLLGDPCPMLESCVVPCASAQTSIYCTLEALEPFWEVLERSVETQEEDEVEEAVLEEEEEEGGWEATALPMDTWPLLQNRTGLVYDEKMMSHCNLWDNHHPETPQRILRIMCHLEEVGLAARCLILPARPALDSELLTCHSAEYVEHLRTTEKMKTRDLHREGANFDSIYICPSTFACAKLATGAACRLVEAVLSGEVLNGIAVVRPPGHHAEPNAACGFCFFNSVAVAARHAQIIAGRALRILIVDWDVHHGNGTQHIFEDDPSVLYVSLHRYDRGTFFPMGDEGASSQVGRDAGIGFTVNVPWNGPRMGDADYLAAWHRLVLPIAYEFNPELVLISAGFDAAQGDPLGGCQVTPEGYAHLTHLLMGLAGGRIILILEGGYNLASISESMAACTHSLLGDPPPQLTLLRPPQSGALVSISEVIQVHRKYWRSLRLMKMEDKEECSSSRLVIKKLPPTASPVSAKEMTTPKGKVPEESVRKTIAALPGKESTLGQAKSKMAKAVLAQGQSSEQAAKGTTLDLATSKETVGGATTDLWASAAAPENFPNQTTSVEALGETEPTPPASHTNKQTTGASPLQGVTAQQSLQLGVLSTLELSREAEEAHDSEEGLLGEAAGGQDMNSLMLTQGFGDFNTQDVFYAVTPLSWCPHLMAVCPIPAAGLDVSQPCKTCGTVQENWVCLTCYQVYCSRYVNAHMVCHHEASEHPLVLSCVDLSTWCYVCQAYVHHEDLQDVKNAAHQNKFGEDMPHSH

[5] = system: Mus musculus; experiment: Anti-pulmonary fibrosis activity in bleomycin-induced idiopathic pulmonary fibrosis C57BL/6J mouse model assessed as decrease in collagen I protein expression in lung at 50 mg/kg, ig administered daily via gavage measured after 14 days by western blot analysis; type: functional, organism-based; conditions: time 14.0 day
[6] = biological target: T1, Histone deacetylase 3; experiment: Inhibition of HDAC3 (unknown origin) at 1 uM incubated for 30 mins by fluorometric analysis
[7] = Toxicity against bleomycin-induced pulmonary fibrosis C57BL/6J mouse model assessed as increase AST index in serum at 50 mg/kg, ig administered daily via gavage and measured on day 14; type: organism-based; conditions: in vivo, po, 336 h, time 14 day

T1 sequence (O15379 whole entry): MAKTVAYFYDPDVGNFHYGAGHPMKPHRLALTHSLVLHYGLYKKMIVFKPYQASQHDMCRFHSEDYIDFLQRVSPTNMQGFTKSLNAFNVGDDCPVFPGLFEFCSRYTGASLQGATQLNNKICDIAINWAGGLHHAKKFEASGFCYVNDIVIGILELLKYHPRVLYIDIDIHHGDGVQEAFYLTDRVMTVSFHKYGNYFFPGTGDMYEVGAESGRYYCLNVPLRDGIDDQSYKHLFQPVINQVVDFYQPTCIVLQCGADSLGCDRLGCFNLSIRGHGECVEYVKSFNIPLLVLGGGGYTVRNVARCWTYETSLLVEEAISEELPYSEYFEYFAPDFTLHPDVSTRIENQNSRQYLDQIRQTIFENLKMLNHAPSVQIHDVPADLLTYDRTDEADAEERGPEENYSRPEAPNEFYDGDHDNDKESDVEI

O=C(NO)c1ccc(CN2C(=O)C3=C(CCN(Cc4cccc(Cl)c4)C3)N3CCN=C23)cc1
Activity [1]: Active | pIC50 [2]: 5.94 | inhibition [3]: Active; Intensity Of Increase Slightly Lower Than Positive Drug, Acy-1215 | inhibition [4]: Active; Levels Lower Than The Positive Control, Acy-1215 | Activity [5]: Active; Superior Activity Compared To Positive Drug, Acy-1215 | inhibition [6]: 50.8% | Activity [7]: Toxic
